From the NIST ThermoML archive (doi:10.1007/s10765-010-0874-x)

Columns and labels:
[1] = xn = mol fraction of the nth substance listed; details: 101 kPa, Liquid; for speed of sound: Sing-around technique in a fixed-path interferometer
[2] = 101 kPa, Liquid; for speed of sound: Sing-around technique in a fixed-path interferometer

CCCCCCO [hexan-1-ol] + ClCCCl
[1], x2 = 0
Details	mass density [kg/m3]	speed of sound [m/s]
293.15 K	818.856	1320.1
298.15 K	815.281	1303.2

ClCCCl [1,2-dichloroethane] + CCCCCCO
[1]
Details	mass density, 293.15 K [kg/m3]	mass density, 298.15 K [kg/m3]	speed of sound, 293.15 K [m/s]	speed of sound, 298.15 K [m/s]
x1 = 0.037	828.769	825.105	1313.2	1296.2
x1 = 0.0769	839.847	836.074	1305.3	1288.2
x1 = 0.1499	860.583	856.62	1291.7	1274.3
x1 = 0.2147	879.725	875.586	1279.7	1262.2
x1 = 0.2935	904.954	900.591	1265.2	1248
x1 = 0.3952	940.475	935.784	1247.7	1230
x1 = 0.4532	962.107	957.223	1238.5	1220.7
x1 = 0.5596	1005.05	999.79	1222.8	1206
x1 = 0.6113	1027.55	1022.09	1216.7	1199.8
x1 = 0.6971	1067.98	1062.14	1207.9	1189.7
x1 = 0.7791	1111.06	1104.85	1202.3	1184.3
x1 = 0.8563	1155.16	1148.59	1200.7	1182.8
x1 = 0.9335	1205.43	1198.46	1205.4	1184.3
x1 = 0.979	1236.99	1229.8	1211.8	1187.7
x1 = 1	1252.77	1245.56	1212.9	1193.6

BrCCBr [1,2-dibromoethane]
[2]
Details	mass density [kg/m3]	speed of sound [m/s]
293.15 K	2179.59	1007
298.15 K	2169.14	994.27

ClC(Cl)=C(Cl)Cl [tetrachloroethene] + CCCCCCO
[1]
Details	mass density, 293.15 K [kg/m3]	mass density, 298.15 K [kg/m3]	speed of sound, 293.15 K [m/s]	speed of sound, 298.15 K [m/s]
x1 = 0.0688	864.637	860.792	1292	1274.5
x1 = 0.123	901.521	897.46	1270.8	1253.7
x1 = 0.2457	987.759	983.18	1226.3	1209.5
x1 = 0.3618	1072.99	1067.89	1188.2	1171.6
x1 = 0.4502	1140.46	1134.94	1161.5	1144.9
x1 = 0.5583	1226.3	1220.26	1131.5	1115.1
x1 = 0.6518	1303.62	1297.1	1108.3	1092
x1 = 0.7068	1350.53	1343.73	1095.8	1079.5
x1 = 0.7419	1381.18	1374.19	1088.4	1072
x1 = 0.7797	1414.65	1407.46	1080.9	1064.6
x1 = 0.8315	1461.44	1453.97	1071.4	1055.6
x1 = 0.8718	1498.8	1491.15	1064.7	1049
x1 = 0.9179	1542.25	1534.33	1058.2	1043.3
x1 = 0.9504	1573.61	1565.56	1055	1041.2
x1 = 1	1622.74	1614.43	1054	1039

CCCCCCO [hexan-1-ol] + ClC(Cl)=C(Cl)Cl
[1], x2 = 0
Details	mass density [kg/m3]	speed of sound [m/s]
293.15 K	818.856	1320.1
298.15 K	815.281	1303.2

ClC(Cl)=C(Cl)Cl [tetrachloroethene]
[2]
Details	mass density [kg/m3]	speed of sound [m/s]
293.15 K	1622.74	1054
298.15 K	1614.43	1039

CCCCCCO [hexan-1-ol]
[2]
Details	mass density [kg/m3]	speed of sound [m/s]
293.15 K	818.856	1320.1
298.15 K	815.281	1303.2

CCCCCCO [hexan-1-ol] + BrCCBr
[1], x2 = 0
Details	mass density [kg/m3]	speed of sound [m/s]
293.15 K	818.856	1320.1
298.15 K	815.281	1303.2

BrCCBr [1,2-dibromoethane] + CCCCCCO
[1]
Details	mass density, 293.15 K [kg/m3]	mass density, 298.15 K [kg/m3]	speed of sound, 293.15 K [m/s]	speed of sound, 298.15 K [m/s]
x1 = 0.0402	856.608	852.83	1296.7	1280
x1 = 0.0682	883.413	879.495	1281	1264.4
x1 = 0.1276	941.916	937.69	1249.4	1233.1
x1 = 0.2056	1022.36	1017.7	1211.2	1195.3
x1 = 0.2686	1090.47	1085.45	1182.9	1167.3
x1 = 0.3892	1228.97	1223.2	1135.2	1120.2
x1 = 0.4277	1276.43	1270.41	1121.2	1106.3
x1 = 0.5444	1427.13	1420.31	1083.6	1069.2
x1 = 0.6405	1562	1554.45	1057.4	1043.6
x1 = 0.7326	1701.64	1693.37	1036.5	1023.1
x1 = 0.8519	1899.69	1890.44	1016.8	1004
x1 = 0.9273	2036.52	2026.66	1009.9	997.38
x1 = 0.9587	2096.51	2086.4	1008.3	995.92
x1 = 0.9782	2135.29	2125.02	1007.4	994.76
x1 = 1	2179.59	2169.14	1007	994.27

ClCCCl [1,2-dichloroethane]
[2]
Details	mass density [kg/m3]	speed of sound [m/s]
293.15 K	1252.77	1212.9
298.15 K	1245.56	1193.6
